Test results from US20210322545A1 (priority 2016, published 2021).

System: cancer cell lines
Type: cell-based

Substance	synergy with SMC using recombinant cytokines
IFNγ	recapitulated
IFNα	recapitulated
